Data from patent publication US20060154895A1, “Method of treating acquired immunedeficiency syndrome” (priority 2004, published 2006).

Experiments:
[1] = Tolerance screening: daily IV dose escalation of curdlan sulfate until APTT is doubled (MTD); type: in vivo, human; conditions: IV infusion, HIV positive patients
Experimental: Patients are selected for treatment with the method of the invention based on the fact that they have previously tested positive for HIV and presently have some detectable level of HIV. Initially, the patients are screened for the effect of curdlan sulfate on coagulation times by measuring the time to coagulation using the activated partial thromboplastin time test (APTT) after IV infusion of 50 mg of curdlan sulfate in over a period of 30 minutes. A test dose of […] of curdlan sulfate is given on the first day and each day thereafter, the dose of curdlan sulfate is increased in 50 mg increments until the APTT is doubled. […] When the MTD is determined for each patient, the MTD is repeated daily for 21 days while the particular dosage regimen of the HAART drugs is continued. After the 21 days of curdlan sulfate therapy is completed, the HAART treatment regimen is also suspended and the viral load is determined daily. If there is no measurable viral load after this treatment, the treatment is deemed to be successful. If the viral load returns to measurable levels for three days, the HAART therapy may be reinstituted followed by another sequence of curdlan sulfate therapy.

T-cells = assay: Blood T-cell levels after curdlan sulfate alone in HIV infected patients; type: in vivo, human; conditions: curdlan sulfate administered by itself to HIV infected patients
From the text: The present invention provides a treatment method for HIV infections that is designed to completely eradicate the HIV virus. […] The reappearance of HIV virus in the blood after the interruption of current therapies makes it likely that the HIV virus is capable of being retained in some biological reservoir where current therapies are unable to create an environment that inhibits or destroys the HIV virus. […] The large increase in T-cells is believed to be due to a release or flushing of T-cells from a biological repository or storage site rather than a biological production of new T-cells. This phenomenon has caused the applicants to theorize that the repository or storage site for the T-cells is also a sanctuary for the HIV virus which appears to have an ability to shield itself from the effects of anti-HIV drugs which are circulated in the blood to all of the bodies organs. The invention is directed to the administration of an entry/fusion inhibitor after a HAART drug combination has been administered in an effective amount for a sufficient time to cause the HIV cells to been eradicated from the blood stream. Thereafter, the entry/fusion inhibitor is administered in an effective amount for a sufficient period of time to eradicate the HIV cells.

curdlan sulfate
bleeding at the MTD [1]: no bleeding at the site of injection or elsewhere is detected | detectable blood levels of T-cells (T-cells): large increases in detectable bloods levels of T-cells
